# Measured values from patent US8076368B2, “Percutaneous absorption type cerebral protective agent” (Lead Chemical Co., Ltd,, priority 2003, dated 2011).
# Tested on: rat-transient focal cerebral ischemia model
# Assay: Rat-transient focal cerebral ischemia model (middle cerebral artery closure 2 h, TTC staining)
# Format: in vivo
# Conditions: injectable solution, intravenously two times (immediately after and 30 minutes after restoration of blood flow), 3 mg/kg
structure (smiles),measurement,value
CC1=NN(c2ccccc2)C(=O)C1 [3-methyl-1-phenyl-2-pyrazolin-5-one],effect on area of cerebral infarction compared with the control group (in words),almost same as that of the control group
